According to patent publication US7868135B2, “Compositions of lipopeptide antibiotic derivatives and methods of use thereof” (priority 2003, dated 2011):

What follows are molecules tested on Staphylococcus aureus (MSSA). Conditions: 24 h.
Procedure: (“Approved Standard M7-A3”).
The antimicrobial lipopeptide derivatives described herein were tested for antimicrobial activity against Gram-positive bacteria as follows. The minimum inhibitory concentrations (MIC) of the antimicrobial lipopeptide derivatives of the invention were determined using NCCLS guidelines M7-A6 (2003) with a slight modification in that doubling serial dilutions were used to dilute the test compounds. The broth phase microdilution method was used. Isolated colonies of Staphylococcus aureus (MSSA) from an 18-24 hour blood agar plate cultures were used to inoculate cation adjusted Mueller-Hinton broth (CAMHB) supplemented with 0.625 mM calcium. […] A negative control containing media alone and a positive growth control containing bacteria with media alone were also included. MICs were determined after incubating the plates at about 37° C. for 24 hours. […] In Tables 1 to 16, R is the core cyclic peptide of amphomycin or aspartocin, which can be in the form of a β-isomer, an anhydro, a dianhydro, or any combination thereof. […] Furthermore, a person of skill in the art will appreciate that all the pounds, or groups of compounds, derived from the various combinations of and substituents shown in Tables 1 to 16, are disclosed by the present the same extent as if each compound or group of compounds was set forth individually.
`CCCCCCCCCCCCCCC(=O)NC(CC(=O)O)C(=O)NC1C(=O)N2CCCCC2C(=O)NC(C(C)C(=O)O)C(=O)NC(CC(=O)O)C(=O)NCC(=O)NC(CC(=O)O)C(=O)NCC(=O)NC(C(C)NC(=O)CNC(=O)[C@@H](N)C(C)C)C(=O)NC(C(C)C)C(=O)N2CCCC2C(=O)NC1C` (some centres unmarked) [Compound 37, C15-Amphomycin-9-Gly-Val] showed an MIC of 2 to 4 µg/mL.
`CCCCCCCCCCCCCCC(=O)NC(CC(=O)O)C(=O)NC1C(=O)N2CCCCC2C(=O)NC(C(C)C(=O)O)C(=O)NC(CC(=O)O)C(=O)NCC(=O)NC(CC(=O)O)C(=O)NCC(=O)NC(C(C)NC(=O)[C@@H](N)CC(N)=O)C(=O)NC(C(C)C)C(=O)N2CCCC2C(=O)NC1C` (some centres unmarked) [Compound 38, C15-Amphomycin-9-Asn] showed an MIC of 2 µg/mL.
With `CCCCCCCCCCCCCCC(=O)NC(CC(=O)O)C(=O)NC1C(=O)N2CCCCC2C(=O)NC(C(C)C(=O)O)C(=O)NC(CC(=O)O)C(=O)NCC(=O)NC(CC(=O)O)C(=O)NCC(=O)NC(C(C)NC(=O)[C@@H](N)Cc2ccc(O)cc2)C(=O)NC(C(C)C)C(=O)N2CCCC2C(=O)NC1C` (some centres unmarked) [Compound 39, C15-Amphomycin-9-Tyr] the MIC was 32 to 64 µg/mL.
`CCCCCCCCCCCCCCC(=O)NC(CC(=O)O)C(=O)NC1C(=O)N2CCCCC2C(=O)NC(C(C)C(=O)O)C(=O)NC(CC(=O)O)C(=O)NCC(=O)NC(CC(=O)O)C(=O)NCC(=O)NC(C(C)NC(=O)[C@@H](N)Cc2c[nH]c3ccccc23)C(=O)NC(C(C)C)C(=O)N2CCCC2C(=O)NC1C` (some centres unmarked) [Compound 40, C15-Amphomycin-9-Trp] showed an MIC of 32 to 64 µg/mL.
For `CCCCCCCCCCCCCCC(=O)NC(CC(=O)O)C(=O)NC1C(=O)N2CCCCC2C(=O)NC(C(C)C(=O)O)C(=O)NC(CC(=O)O)C(=O)NCC(=O)NC(CC(=O)O)C(=O)NCC(=O)NC(C(C)NC(=O)[C@@H](N)c2ccccc2)C(=O)NC(C(C)C)C(=O)N2CCCC2C(=O)NC1C` (some centres unmarked) [Compound 41, C15-Amphomycin-9-Phg], the MIC was 4 µg/mL.
In the case of `CCCCCCCCCCCCCCC(=O)NC(CC(=O)O)C(=O)NC1C(=O)N2CCCCC2C(=O)NC(C(C)C(=O)O)C(=O)NC(CC(=O)O)C(=O)NCC(=O)NC(CC(=O)O)C(=O)NCC(=O)NC(C(C)NC(=O)CNC(=O)CN)C(=O)NC(C(C)C)C(=O)N2CCCC2C(=O)NC1C` (centres unmarked) [Compound 42, C15-Amphomycin-9-Gly-Gly], the MIC is reported as 1 µg/mL.
`CCCCCCCCCCCCCCC(=O)NC(CC(=O)O)C(=O)NC1C(=O)N2CCCCC2C(=O)NC(C(C)C(=O)O)C(=O)NC(CC(=O)O)C(=O)NCC(=O)NC(CC(=O)O)C(=O)NCC(=O)NC(C(C)NC(=O)[C@@H](N)CCC(N)=O)C(=O)NC(C(C)C)C(=O)N2CCCC2C(=O)NC1C` (some centres unmarked) [Compound 43, C15-Amphomycin-9-Gln] was tested, and the MIC was 8 to 16 µg/mL.
With `CCCCCCCCCCCCCCC(=O)NC(CC(=O)O)C(=O)NC1C(=O)N2CCCCC2C(=O)NC(C(C)C(=O)O)C(=O)NC(CC(=O)O)C(=O)NCC(=O)NC(CC(=O)O)C(=O)NCC(=O)NC(C(C)NC(=O)[C@@H](N)[C@@H](C)O)C(=O)NC(C(C)C)C(=O)N2CCCC2C(=O)NC1C` (some centres unmarked) [Compound 44, C15-Amphomycin-9-Thr] the MIC was 2 to 4 µg/mL.
`CCCCCCCCCCCCCCC(=O)NC(CC(=O)O)C(=O)NC1C(=O)N2CCCCC2C(=O)NC(C(C)C(=O)O)C(=O)NC(CC(=O)O)C(=O)NCC(=O)NC(CC(=O)O)C(=O)NCC(=O)NC(C(C)NC(=O)CNC(=O)[C@@H](N)CC(C)C)C(=O)NC(C(C)C)C(=O)N2CCCC2C(=O)NC1C` (some centres unmarked) [Compound 46, C15-Amphomycin-9-Gly-Leu] gave an MIC of 1 µg/mL.
Work on `CCCCCCCCCCCCCCC(=O)NC(CC(=O)O)C(=O)NC1C(=O)N2CCCCC2C(=O)NC(C(C)C(=O)O)C(=O)NC(CC(=O)O)C(=O)NCC(=O)NC(CC(=O)O)C(=O)NCC(=O)NC(C(C)NC(=O)CNC(=O)CCC(=O)O)C(=O)NC(C(C)C)C(=O)N2CCCC2C(=O)NC1C` (centres unmarked) [Compound 48, C15-Amphomycin-9-Gly-Suc] yielded an MIC of 8 µg/mL.
In the case of `CCCCCCCCCCCCCCC(=O)NC(CC(=O)O)C(=O)NC1C(=O)N2CCCCC2C(=O)NC(C(C)C(=O)O)C(=O)NC(CC(=O)O)C(=O)NCC(=O)NC(CC(=O)O)C(=O)NCC(=O)NC(C(C)NC(=O)CNC(C)=O)C(=O)NC(C(C)C)C(=O)N2CCCC2C(=O)NC1C` (centres unmarked) [Compound 49, C15-Amphomycin-9-Gly-Ac], the MIC is reported as 4 µg/mL.
`CCCCCCCCCCCCCCC(=O)NC(CC(=O)O)C(=O)NC1C(=O)N2CCCCC2C(=O)NC(C(C)C(=O)O)C(=O)NC(CC(=O)O)C(=O)NCC(=O)NC(CC(=O)O)C(=O)NCC(=O)NC(C(C)NC(=O)[C@@H](N)Cc2ccc(OC)cc2)C(=O)NC(C(C)C)C(=O)N2CCCC2C(=O)NC1C` (some centres unmarked) [Compound 52, C15-Amphomycin-9-Tyr(Me)] was tested, and the MIC was 16 µg/mL.
With `CCCCCCCCCCCCCCC(=O)NC(CC(=O)O)C(=O)NC1C(=O)N2CCCCC2C(=O)NC(C(C)C(=O)O)C(=O)NC(CC(=O)O)C(=O)NCC(=O)NC(CC(=O)O)C(=O)NCC(=O)NC(C(C)NC(=O)[C@@H](C)N)C(=O)NC(C(C)C)C(=O)N2CCCC2C(=O)NC1C` (stereo partly drawn) [Compound 66, C15-Amphomycin-9-(D-Ala)] the MIC was 4 µg/mL.
`CCCCCCCCCCCCCCC(=O)NC(CC(=O)O)C(=O)NC1C(=O)N2CCCCC2C(=O)NC(C(C)C(=O)O)C(=O)NC(CC(=O)O)C(=O)NCC(=O)NC(CC(=O)O)C(=O)NCC(=O)NC(C(C)NC(=O)CNC(=O)CCCN)C(=O)NC(C(C)C)C(=O)N2CCCC2C(=O)NC1C` (centres unmarked) [Compound 68, C15-Amphomycin-9-Gly-GABA] was tested, and the MIC was 2 µg/mL.
`CCCCCCCCCCCCCCC(=O)NC(CC(=O)O)C(=O)NC1C(=O)N2CCCCC2C(=O)NC(C(C)C(=O)O)C(=O)NC(CC(=O)O)C(=O)NCC(=O)NC(CC(=O)O)C(=O)NCC(=O)NC(C(C)NC(=O)CCNC(=O)CCCCCN)C(=O)NC(C(C)C)C(=O)N2CCCC2C(=O)NC1C` (stereo not drawn) [Compound 70, C15-Amphomycin-9-(β-Ala)-Ahx] showed an MIC of 2 µg/mL.
In the case of `CCCCCCCCCCCCCCC(=O)NC(CC(=O)O)C(=O)NC1C(=O)N2CCCCC2C(=O)NC(C(C)C(=O)O)C(=O)NC(CC(=O)O)C(=O)NCC(=O)NC(CC(=O)O)C(=O)NCC(=O)NC(C(C)NC(=O)CCCNC(=O)[C@@H](N)C(C)C)C(=O)NC(C(C)C)C(=O)N2CCCC2C(=O)NC1C` (some centres unmarked) [Compound 71, C15-Amphomycin-9-GABA-Val], the MIC is reported as 4 µg/mL.
`CCCCCCCCCCCCCCC(=O)NC(CC(=O)O)C(=O)NC1C(=O)N2CCCCC2C(=O)NC(C(C)C(=O)O)C(=O)NC(CC(=O)O)C(=O)NCC(=O)NC(CC(=O)O)C(=O)NCC(=O)NC(C(C)NC(=O)CCCNC(=O)CCCCCN)C(=O)NC(C(C)C)C(=O)N2CCCC2C(=O)NC1C` (centres unmarked) [Compound 72, C15-Amphomycin-9-GABA-Ahx] gave an MIC of 8 µg/mL.

Same assay, conditions: S. aureus (MSSA), CAMHB supplemented with 0.625 mM calcium, 24 hours at about 37° C.; a range = compound tested multiple times
For `CCCCCCCCCCCCC(=O)NC(CC(=O)O)C(=O)NC1C(=O)N2CCCCC2C(=O)NC(C(C)C(=O)O)C(=O)NC(CC(=O)O)C(=O)NCC(=O)NC(CC(=O)O)C(=O)NCC(=O)NC(C(C)NC(=O)CCCN)C(=O)NC(C(C)C)C(=O)N2CCCC2C(=O)NC1C` (centres unmarked) [Compound 50, C13-Amphomycin-9-GABA], the MIC was 50/1 μg/mL.
`CCCCCCCCCCCCC(=O)NC(CC(=O)O)C(=O)NC1C(=O)N2CCCCC2C(=O)NC(C(C)C(=O)O)C(=O)NC(CC(=O)O)C(=O)NCC(=O)NC(CC(=O)O)C(=O)NCC(=O)NC(C(C)NC(=O)CN)C(=O)NC(C(C)C)C(=O)N2CCCC2C(=O)NC1C` (centres unmarked) [Compound 53, C13-Amphomycin-9-Gly] was tested, and the MIC was 53/8 μg/mL.
For `CCCCCCCCCCCCC(=O)NC(CC(=O)O)C(=O)NC1C(=O)N2CCCCC2C(=O)NC(C(C)C(=O)O)C(=O)NC(CC(=O)O)C(=O)NCC(=O)NC(CC(=O)O)C(=O)NCC(=O)NC(C(C)NC(=O)CCN)C(=O)NC(C(C)C)C(=O)N2CCCC2C(=O)NC1C` (stereo not drawn) [Compound 54, C13-Amphomycin-9-(β-Ala)], the MIC was 54/2-4 μg/mL.
`CCCCCCCCCCCCC(=O)NC(CC(=O)O)C(=O)NC1C(=O)N2CCCCC2C(=O)NC(C(C)C(=O)O)C(=O)NC(CC(=O)O)C(=O)NCC(=O)NC(CC(=O)O)C(=O)NCC(=O)NC(C(C)NC(=O)CNC)C(=O)NC(C(C)C)C(=O)N2CCCC2C(=O)NC1C` (centres unmarked) [Compound 55, C13-Amphomycin-9-Sar] was tested, and the MIC was 55/1 μg/mL.
In the case of `CCCCCCCCCCCC(=O)NC(CC(=O)O)C(=O)NC1C(=O)N2CCCCC2C(=O)NC(C(C)C(=O)O)C(=O)NC(CC(=O)O)C(=O)NCC(=O)NC(CC(=O)O)C(=O)NCC(=O)NC(C(C)NC(=O)CCCN)C(=O)NC(C(C)C)C(=O)N2CCCC2C(=O)NC1C` (centres unmarked) [Compound 57, C12-Amphomycin-9-GABA], the MIC is reported as 57/16 μg/mL.
`CCCCCCCCCCCC(=O)NC(CC(=O)O)C(=O)NC1C(=O)N2CCCCC2C(=O)NC(C(C)C(=O)O)C(=O)NC(CC(=O)O)C(=O)NCC(=O)NC(CC(=O)O)C(=O)NCC(=O)NC(C(C)NC(=O)CN)C(=O)NC(C(C)C)C(=O)N2CCCC2C(=O)NC1C` (centres unmarked) [Compound 58, C12-Amphomycin-9-Gly] was tested, and the MIC was 58/4-8 μg/mL.
For `CCCCCCCCCCCCCC(=O)NC(CC(=O)O)C(=O)NC1C(=O)N2CCCCC2C(=O)NC(C(C)C(=O)O)C(=O)NC(CC(=O)O)C(=O)NCC(=O)NC(CC(=O)O)C(=O)NCC(=O)NC(C(C)NC(=O)CCN)C(=O)NC(C(C)C)C(=O)N2CCCC2C(=O)NC1C` (stereo not drawn) [Compound 59, C14-Amphomycin-9-(β-Ala)], the MIC was 59/0.5-1 μg/mL.
In the case of `CCCCCCCCCCCCCC(=O)NC(CC(=O)O)C(=O)NC1C(=O)N2CCCCC2C(=O)NC(C(C)C(=O)O)C(=O)NC(CC(=O)O)C(=O)NCC(=O)NC(CC(=O)O)C(=O)NCC(=O)NC(C(C)NC(=O)CCCN)C(=O)NC(C(C)C)C(=O)N2CCCC2C(=O)NC1C` (centres unmarked) [Compound 62, C14-Amphomycin-9-GABA], the MIC is reported as 62/0.5-1 μg/mL.
With `CCCCCCCCCCCC(=O)NC(CC(=O)O)C(=O)NC1C(=O)N2CCCCC2C(=O)NC(C(C)C(=O)O)C(=O)NC(CC(=O)O)C(=O)NCC(=O)NC(CC(=O)O)C(=O)NCC(=O)NC(C(C)NC(=O)CCN)C(=O)NC(C(C)C)C(=O)N2CCCC2C(=O)NC1C` (stereo not drawn) [Compound 73, C12-Amphomycin-9-(β-Ala)] the MIC was 73/2-4 μg/mL.
